What follows are compounds tested against human TrkA (Homo sapiens (Human), UniProt P04629) (assay: Human TrkA inhibition assay (Test Example 2)). Details: Table 154, human TrkA inhibition; read-out: IC50.
Type: biochemical
Method in brief: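 Mobility-shift readout of phosphorylated versus unphosphorylated fluorescent peptide gave conversion ratio, normalized to DMSO and no-enzyme wells; IC50 by logistic fit of 10- or 15-point 3-fold dilutions. Conditions: 1 nmol/L enzyme, 15 min compound preincubation, then 500 μmol/L ATP plus 1.5 μmol/L peptide, 120 min, 37 °C.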

human TrkA, sequence (P04629 440-796): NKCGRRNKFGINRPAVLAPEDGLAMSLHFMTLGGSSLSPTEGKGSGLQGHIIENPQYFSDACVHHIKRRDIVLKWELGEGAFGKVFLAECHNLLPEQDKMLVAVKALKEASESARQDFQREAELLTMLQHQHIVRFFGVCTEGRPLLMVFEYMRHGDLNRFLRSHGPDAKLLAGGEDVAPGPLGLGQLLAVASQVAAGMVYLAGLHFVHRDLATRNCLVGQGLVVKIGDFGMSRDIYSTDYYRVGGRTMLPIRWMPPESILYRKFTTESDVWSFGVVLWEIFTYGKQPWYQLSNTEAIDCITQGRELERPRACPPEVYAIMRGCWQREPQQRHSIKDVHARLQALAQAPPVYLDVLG

| IC50 | Compound |
| --- | --- |
| < 100 nM | COCCN1C[C@@H](NC(=O)Nc2c(C)c(-c3cnc4c(c3)nc(C(N)=O)n4C)nn2-c2ccccc2)[C@H](c2ccnc(F)c2)O1 (racemic) [Compound I-219] |
| < 100 nM | COCCN1C[C@@H](NC(=O)Nc2c(C)c(-c3cnc4c(c3)nc(C#N)n4C)nn2-c2ccccc2)[C@H](c2ccnc(F)c2)O1 (racemic) [Compound I-220] |
| < 100 nM | COCCN1C[C@@H](NC(=O)Nc2c(C)c(-c3cnc4c(cnn4C)c3)nn2-c2ccc(F)cc2)[C@H](c2ccnc(F)c2)O1 (racemic) [Compound I-223] |
| < 100 nM | CNC(=O)c1nc2cc(-c3nn(-c4ccccc4)c(NC(=O)N[C@@H]4CN(CCOC)O[C@H]4c4ccnc(F)c4)c3C)cnc2n1C (racemic) [Compound I-224] |
| < 100 nM | COCCN1C[C@@H](NC(=O)Nc2c(C)c(-c3cnc4c(c3)nc(C(=O)NCCO)n4C)nn2-c2ccccc2)[C@H](c2ccnc(F)c2)O1 (racemic) [Compound I-225] |
| < 100 nM | COCCN1C[C@@H](NC(=O)Nc2c(C)c(-c3cnc4c(c3)nc(C(F)(F)F)n4C)nn2-c2ccccc2)[C@H](c2ccnc(F)c2)O1 (racemic) [Compound I-226] |
| < 100 nM | COCCN1C[C@@H](NC(=O)Nc2c(C)c(-c3cnc4c(cnn4CC(F)(F)F)c3)nn2-c2ccccc2)[C@H](c2ccnc(F)c2)O1 (racemic) [Compound I-228] |
| < 100 nM | COCCN1C[C@@H](NC(=O)Nc2c(C)c(-c3ccnc(C(=O)NO)c3)nn2-c2ccccc2)[C@H](c2ccnc(F)c2)O1 (racemic) [Compound I-230] |
| < 100 nM | COCCN1C[C@@H](NC(=O)Nc2c(C)c(-c3ccc(C(=O)NOC)nc3)nn2-c2ccccc2)[C@H](c2ccc(F)c(F)c2)O1 (racemic) [Compound I-234] |
| < 100 nM | COCCN1C[C@@H](NC(=O)Nc2c(C)c(-c3cnc(OC)c(C(N)=O)c3)nn2-c2ccc(F)cc2)[C@H](c2ccnc(F)c2)O1 (racemic) [Compound I-238] |
| < 100 nM | COCCN1C[C@@H](NC(=O)Nc2c(C)c(-c3cnc4c(c3)ncn4CC(F)(F)F)nn2-c2ccccc2)[C@H](c2ccnc(F)c2)O1 (racemic) [Compound I-240] |
| < 100 nM | COCC[C@@H]1C[C@@H](NC(=O)Nc2c(C)c(-c3cnc(N4CC(O)C4)nc3)nn2-c2ccccc2)[C@H](c2ccc(F)c(F)c2)O1 (racemic) [Compound I-242] |
| < 100 nM | COCCN1C[C@@H](NC(=O)Nc2c(C)c(-c3cnc4nn(CC(F)(F)F)cc4c3)nn2-c2ccccc2)[C@H](c2ccnc(F)c2)O1 (racemic) [Compound I-243] |
| < 100 nM | COCCN1C[C@@H](NC(=O)Nc2c(C)c(-c3cnc4c(ccc(=O)n4C)c3)nn2-c2ccccc2)[C@H](c2ccnc(F)c2)O1 (racemic) [Compound I-246] |
| < 100 nM | COCCN1C[C@@H](NC(=O)Nc2c(C)c(-c3cnc(OC)nc3)nn2-c2ccccc2)[C@H](c2ccc(F)cc2)O1 (racemic) [Compound I-247] |
| < 100 nM | COCCN1C[C@@H](NC(=O)Nc2c(C)c(-c3cnc(Cl)nc3)nn2-c2ccccc2)[C@H](c2ccnc(F)c2)O1 (racemic) [Compound I-249] |
| < 100 nM | COCCN1C[C@@H](NC(=O)Nc2c(C)c(-c3cnc(SC)nc3)nn2-c2ccccc2)[C@H](c2ccnc(F)c2)O1 (racemic) [Compound I-250] |
| < 100 nM | COCCN1C[C@@H](NC(=O)Nc2c(C)c(-c3cnc(C(N)=O)c(F)c3)nn2-c2ccccc2)[C@H](c2ccnc(F)c2)O1 (racemic) [Compound I-255] |
| < 100 nM | CNC(=O)c1ncc(-c2nn(-c3ccccc3)c(NC(=O)N[C@@H]3CN(CCOC)O[C@H]3c3ccnc(F)c3)c2C)cc1F (racemic) [Compound I-256] |
| < 100 nM | COCCN1C[C@@H](NC(=O)Nc2c(C)c(-c3cnc(C(=O)NC4CC4)c(F)c3)nn2-c2ccccc2)[C@H](c2ccnc(F)c2)O1 (racemic) [Compound I-257] |

| IC50 | Compound |
| --- | --- |
| < 100 nM | COCCN1C[C@@H](NC(=O)Nc2c(C)c(-c3cnc4c(c3)COC4=O)nn2-c2ccccc2)[C@H](c2ccnc(F)c2)O1 (racemic) [Compound I-259] |
| < 100 nM | COCCN1C[C@@H](NC(=O)Nc2c(C)c(-c3cnc(OC)c(C(=O)NOC)c3)nn2-c2ccccc2)[C@H](c2ccnc(F)c2)O1 (racemic) [Compound I-260] |
| < 100 nM | COCCN1C[C@@H](NC(=O)Nc2c(C)c(-c3cnc(OC)c(C(=O)NOCCF)c3)nn2-c2ccccc2)[C@H](c2ccnc(F)c2)O1 (racemic) [Compound I-261] |
| < 100 nM | COCCN1C[C@@H](NC(=O)Nc2c(C)c(-c3ccc4c(c3)CS(=O)(=O)N4C)nn2-c2ccccc2)[C@H](c2ccnc(F)c2)O1 (racemic) [Compound I-262] |
| < 100 nM | COCCN1C[C@@H](NC(=O)Nc2c(C)c(-c3cnc4c(c3)c(C(F)(F)F)nn4C)nn2-c2ccccc2)[C@H](c2ccnc(F)c2)O1 (racemic) [Compound I-264] |
| < 100 nM | COCCN1C[C@@H](NC(=O)Nc2c(C)c(-c3cnc(N4CC(O)C4)nc3)nn2-c2ccccc2)[C@H](c2ccc(F)cc2)O1 (racemic) [Compound I-265] |
| < 100 nM | COCCN1C[C@@H](NC(=O)Nc2c(C)c(-c3cnc(N4CCC4)nc3)nn2-c2ccccc2)[C@H](c2ccnc(F)c2)O1 (racemic) [Compound I-266] |
| < 100 nM | COCCN1C[C@@H](NC(=O)Nc2c(C)c(-c3ccc4nnc(C)n4c3)nn2-c2ccccc2)[C@H](c2ccc(F)cc2)O1 (racemic) [Compound I-267] |
| < 100 nM | COCCN1C[C@@H](NC(=O)Nc2c(C)c(-c3cnc4c(c3)c(=O)on4C)nn2-c2ccccc2)[C@H](c2ccnc(F)c2)O1 (racemic) [Compound I-269] |
| < 100 nM | COCCN1C[C@@H](NC(=O)Nc2c(C)c(-c3cnc(S(C)(=O)=O)nc3)nn2-c2ccccc2)[C@H](c2ccnc(F)c2)O1 (racemic) [Compound I-270] |
| < 100 nM | COCCN1C[C@@H](NC(=O)Nc2c(C)c(-c3cnc4c(c3)OCCN4C(=O)OC(C)(C)C)nn2-c2ccccc2)[C@H](c2ccnc(F)c2)O1 (racemic) [Compound I-280] |
| < 100 nM | COCCN1C[C@@H](NC(=O)Nc2c(C)c(-c3cnc4c(c3)OCCN4)nn2-c2ccccc2)[C@H](c2ccnc(F)c2)O1 (racemic) [Compound I-281] |
| < 100 nM | COCCN1C[C@@H](NC(=O)Nc2c(C)c(-c3ccc4nc(C(N)=O)cn4c3)nn2-c2ccccc2)[C@H](c2ccnc(F)c2)O1 (racemic) [Compound I-282] |
| < 100 nM | COCCN1C[C@@H](NC(=O)Nc2c(C)c(-c3ccc(N4CCCC4)nc3)nn2-c2ccccc2)[C@H](c2ccnc(F)c2)O1 (racemic) [Compound I-283] |
| < 100 nM | COCCN1C[C@@H](NC(=O)Nc2c(C)c(-c3ccn4c(C)nnc4c3)nn2-c2ccccc2)[C@H](c2ccc(F)cc2)O1 (racemic) [Compound I-284] |
| < 100 nM | COCCN1C[C@@H](NC(=O)Nc2c(C)c(-c3cnc(N4CC(OC(=O)c5ccccc5)C4)nc3)nn2-c2ccccc2)[C@H](c2cc(F)nc(F)c2)O1 (racemic) [Compound I-286] |
| < 100 nM | COCCN1C[C@@H](NC(=O)Nc2c(C)c(-c3cnc(C)s3)nn2-c2ccccc2)[C@H](c2ccnc(F)c2)O1 (racemic) [Compound I-287] |
| < 100 nM | COCCN1C[C@@H](NC(=O)Nc2c(C)c(-n3cnc(C)c3)nn2-c2ccccc2)[C@H](c2cnc(F)c(F)c2)O1 (racemic) [Compound I-297] |
| < 100 nM | COCCN1C[C@@H](NC(=O)Nc2c(C)c(-c3cnc(F)nc3)nn2-c2ccccc2)[C@H](c2ccnc(F)c2)O1 (racemic) [Compound I-300] |
| < 100 nM | COCCN1C[C@@H](NC(=O)Nc2c(C)c(-c3cc(C(N)=O)c(=O)n(C)n3)nn2-c2ccccc2)[C@H](c2ccnc(F)c2)O1 (racemic) [Compound I-301] |

Same assay, conditions: human TrkA 1 nmol/L, ATP 500 μmol/L, 120 min at 37° C.; read-out: IC50 values (TrkA phosphorylation inhibition)

| IC50 | Compound |
| --- | --- |
| 4.6 nM | COCCN1C[C@@H](NC(=O)Nc2c(C)c(-c3cnn(C)c3)nn2-c2ccccc2)[C@H](c2cc(F)nc(F)c2)O1 (racemic) [Compound I-217] |
| 4.2 nM | COCCN1C[C@@H](NC(=O)Nc2c(C)c(-c3ccnc(C(=O)NOC)c3)nn2-c2ccccc2)[C@H](c2ccnc(F)c2)O1 (racemic) [Compound I-232] |
| 3.8 nM | COCCN1C[C@@H](NC(=O)Nc2c(C)c(-c3cnc(OC)c(C(=O)NC4CCOCC4)c3)nn2-c2ccc(F)cc2)[C@H](c2ccnc(F)c2)O1 (racemic) [Compound I-239] |
| 3.2 nM | COCCN1C[C@@H](NC(=O)Nc2c(C)c(-c3cnc4ncn(CC(F)(F)F)c4c3)nn2-c2ccccc2)[C@H](c2ccnc(F)c2)O1 (racemic) [Compound I-241] |
| 17 nM | COCCN1C[C@@H](NC(=O)Nc2c(C)c(N3Cc4cnn(C)c4C3)nn2-c2ccccc2)[C@H](c2ccnc(F)c2)O1 (racemic) [Compound I-244] |
| 3.7 nM | COCCN1C[C@@H](NC(=O)Nc2c(C)c(-c3ccc(N4CCC(O)CC4)nc3)nn2-c2ccccc2)[C@H](c2ccnc(F)c2)O1 (racemic) [Compound I-278] |
| 2 nM | COCCN1C[C@@H](NC(=O)Nc2c(C)c(-c3cnc4c(c3)OCC(=O)N4)nn2-c2ccccc2)[C@H](c2ccnc(F)c2)O1 (racemic) [Compound I-279] |
| 2.7 nM | COCCN1C[C@@H](NC(=O)Nc2c(C)c(-c3cnc(C)nc3)nn2-c2ccccc2)[C@H](c2cc(F)nc(F)c2)O1 (racemic) [Compound I-285] |
| 2 nM | COCCN1C[C@@H](NC(=O)Nc2c(C)c(-c3cnc4c(c3)CC(=O)N4C)nn2-c2ccccc2)[C@H](c2ccnc(F)c2)O1 (racemic) [Compound I-291] |
| 2.1 nM | COCCN1C[C@@H](NC(=O)Nc2c(C)c(-c3cnc4[nH]ncc4c3)nn2-c2ccccc2)[C@H](c2ccnc(F)c2)O1 (racemic) [Compound I-299] |
| 8.2 nM | CNC(=O)c1cc(-c2nn(-c3ccccc3)c(NC(=O)N[C@@H]3CN(CCOC)O[C@H]3c3ccnc(F)c3)c2C)nn(C)c1=O (racemic) [Compound I-302] |

— US10640495B2, “Heterocycle derivatives having TrkA inhibitory activity” (Shionogi & Co., Ltd., priority 2015, dated 2020)
